Among the data in ChEMBL document CHEMBL5335841, “In vitro biological evaluation and in silico studies of linear diarylheptanoids from Curcuma aromatica Salisb. as urease inhibitors” (RSC Med Chem, 2024) are IC50 and inhibition values, retold here.

A short description of test [1]: Inhibition of urease (unknown origin) using urea as substrate preincubated for 30 mins followed by substrate addition and measured after 20 mins by red phenol reagent based assay.
The nature of test [2]: Inhibition of urease (unknown origin) at 250 uM using urea as substrate preincubated for 30 mins followed by substrate addition and measured after 20 mins by red phenol reagent based assay relative to control. Particulars: time 50.0 min.

Regarding `Oc1ccc(CC[C@H](O)C[C@H](O)CCc2ccc(O)c(O)c2)cc1` (relative stereo), in test [1], the concentration for half-maximal inhibition (IC50) is 9.6 µM.

For `COc1cc(CC[C@@H](O)C[C@@H](O)CCc2ccc(O)cc2)ccc1O` (relative stereo), inhibition in test [1] was half-maximal at 153 µM (IC50).

`COc1cc(CC[C@@H](O)C[C@@H](O)CCc2ccc(O)cc2)cc(OC)c1O` (relative stereo) returned an IC50 in test [1] of 228 µM. The IC50 values of the last two molecules are within 1.5-fold of each other.

Molecule `COc1cc(CC[C@H](O)C[C@H](O)CCc2cc(OC)c(O)c(OC)c2)ccc1O` (relative stereo) registered an IC50 in test [1] above 250 µM. The molecule further gave an inhibition in test [2] of 27.3%.

In turn, `COc1cc(CC[C@@H](O)C[C@H](O)CCc2ccc(O)c(O)c2)ccc1O` (relative stereo) returned an IC50 in test [1] of 21.8 µM.

On to `COc1cc(CC[C@H](C[C@H](CCc2ccc(O)cc2)OC(C)=O)OC(C)=O)ccc1O` (relative stereo), for which the IC50 in test [1] came out at 223 µM. This IC50 is about 10-fold higher than that of the molecule before.

In turn, `CC(=O)O[C@H](CCc1ccc(O)c(O)c1)C[C@H](CCc1ccc(O)cc1)OC(C)=O` (relative stereo) showed an IC50 in test [1] of 129 µM.

For the molecule `COc1cc(CC[C@@H](O)C[C@H](O)CCc2cc(OC)c(O)c(OC)c2)ccc1O` (relative stereo), the IC50 in test [1] is above 250 µM. In test [2], this molecule had an inhibition of 14.3%.

Consider `COc1cc(CC[C@H](C[C@H](CCc2ccc(O)cc2)OC(C)=O)OC(C)=O)cc(OC)c1O` (relative stereo), for which the IC50 in test [1] is above 250 µM. Besides, the inhibition in test [2] is 3.3%.

On to `NC(=O)NO` [HYDROXYUREA], for which 77.5 µM corresponded to half-maximal inhibition in test [1] (IC50). This counts as double-digit micromolar.
